Reference: US20240025906A1 (NEURON23, INC., priority 2022, published 2024)
Read-outs that look alike come from different tables or passages of the source.

Legend:
[1] = system: JAK1/TYK2 pSTAT5 (Tyr694/699) in THP-1 cell line; experiment: IFNa-stimulated JAK1/TYK2 pSTAT5 (Tyr694/699) inhibition cellular assay, AlphaLISA; type: cell-based; conditions: Homo sapiens, THP-1 cells, AlphaLISA (Assay B)
How it was run: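 THP-1 cells (2e4/well in HBSS) were preincubated with compound (8 points, 6-fold steps from 10000 nM final) for 1 h at 37 °C, then stimulated with IFNa (added at 100 ng/mL) for 30 min. Lysate pSTAT5 was read by AlphaLISA at 615 nm. IC50 came from a 4-parameter fit with bottom 0 and Hill −1.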

[2] = target: T1, TYK2 JH2 (Homo sapiens, UniProt P29597); experiment: TYK2 JH2 binding assay (KINOMEscan KdELECT competitive binding); conditions: TYK2 JH2 domain
T1 construct: purchased DiscoverX (KINOMEscan KdELECT service); host or cells: E. coli BL21-derived (T7 phage display) or HEK-293
T1 sequence (P29597 589-875 limits assumed): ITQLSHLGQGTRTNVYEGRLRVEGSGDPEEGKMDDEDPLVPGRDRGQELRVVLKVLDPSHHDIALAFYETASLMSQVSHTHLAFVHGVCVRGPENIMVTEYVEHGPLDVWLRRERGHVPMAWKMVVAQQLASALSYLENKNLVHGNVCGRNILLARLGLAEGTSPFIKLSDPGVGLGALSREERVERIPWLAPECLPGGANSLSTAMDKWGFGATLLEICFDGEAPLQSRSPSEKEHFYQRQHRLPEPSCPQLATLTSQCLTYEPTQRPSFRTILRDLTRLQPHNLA
How it was run: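 Test compounds were titrated in 11 three-fold steps against JH2 fragment captured on ligand-loaded magnetic beads, with 1 h incubation at room temperature and DMSO at 0.9%. Eluted kinase was quantified by qPCR, and Kd was fitted from the dose series.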

[3] = IFNa-stimulated, read-out: Cellular_THP1_IFNa-pSTATS_TYK2
[4] = DiscoverX KINOMEscan KdELECT (Assay A), read-out: Biochemical TYK2_DiscoverX_JH2_BND_Kd
[5] = KINOMEscan KdELECT (Assay A), read-out: Biochemical TYK2_DiscoverX_JH2_BND_Kd
[6] = IFNa-stimulated, read-out: Cellular THP1_IFNa-pSTATS_IC50
[7] = KINOMEscan KdELECT (Assay A), read-out: Biochemical TYK2_JH2_Kd
[8] = IFNa-stimulated pSTAT5 (Tyr694/699), read-out: Cellular_THP1_IFNa-pSTATS_TYK2

SMILES	IC50 [1, 3] [nM]	Kd [2, 4] [nM]	Kd [2, 5] [nM]	also measured
CNc1ncc(-c2nc3ccc(S(C)(=O)=O)cn3n2)c2cc(NC(=O)C3CC3)ncc12 [Example 497, N-(8-(methylamino)-5-(6-(methylsulfonyl)-[1,2,4]triazolo[1,5-a]pyridin-2-yl)-2,7-naphthyridin-3-yl)cyclopropanecarboxamide]	≤ 500	≤ 100	–	–
CNc1ncc(-c2nc3cc(OC4CNC4)ccc3o2)c2cc(NC(=O)C3CC3)ncc12 [Example 197, N-(5-(5-(azetidin-3-yloxy)benzo[d]oxazol-2-yl)-8-(methylamino)-2,7-naphthyridin-3-yl)cyclopropanecarboxamide]	≤ 500	≤ 100	–	–
C=C(C)c1cnc(NC)c2cnc(NC(=O)C3CC3)cc12 [Example 73, N-(8-(methylamino)-5-(prop-1-en-2-yl)-2,7-naphthyridin-3-yl)cyclopropanecarboxamide]	–	–	–	IC50 [1, 6]: > 500 nM; Kd [2, 7]: ≤ 100 nM
CNc1ncc(-c2ccc(Oc3cccnc3)cc2)c2cc(NC(=O)C3CC3)ncc12 [Example 864, N-(8-(methylamino)-5-(4-(pyridin-3-yloxy)phenyl)-2,7-naphthyridin-3-yl)cyclopropanecarboxamide]	≤ 500	–	≤ 100	–
CNc1ncc(-c2nc3c(o2)CCCC3)c2cc(NC(=O)C3CC3)ncc12 [Example 843, N-(8-(methylamino)-5-(4,5,6,7-tetrahydrobenzo[d]oxazol-2-yl)-2,7-naphthyridin-3-yl)cyclopropanecarboxamide]	≤ 500	–	≤ 100	–
CNc1ncc(-c2nc3cc(N4CC5(COC5)C4)ccc3o2)c2cc(NC(=O)C3CC3)ncc12 [Example 296, N-(5-(5-(2-oxa-6-azaspiro[3.3]heptan-6-yl)benzo[d]oxazol-2-y1)-8-(methylamino)-2,7-naphthyridin-3-yl)cyclopropanecarboxamide]	≤ 500	≤ 100	–	–
COc1ccc2oc(-c3cnc(N)c4cnc(NC(=O)C5CC5)cc34)nc2c1 [Example 369, N-(8-amino-5-(5-methoxybenzo[d]oxazol-2-yl)-2,7-naphthyridin-3-yl)cyclopropanecarboxamide]	≤ 500	≤ 100	–	–
CNc1ncc(-c2ccccc2)c2cc(NCC3CC3)ncc12 [Example 93, N^6-(cyclopropylmethyl)-N^1-methyl-4-phenyl-2,7-naphthyridine-1,6-diamine]	–	–	–	IC50 [1, 6]: > 500 nM; Kd [2, 7]: 1000 to 10000 nM
[2H]C([2H])([2H])Nc1ncc(-c2nc3cc(OC)ccc3o2)c2cc(NC(=O)[C@@H]3C[C@@H]3F)ncc12 [Example 435, (1S,2S)-2-fluoro-N-(5-(5-methoxybenzo[d]oxazol-2-yl)-8-((methyl-d3)amino)-2,7-naphthyridin-3-yl)cyclopropane-1-carboxamide]	≤ 500	≤ 100	–	–
CNc1ncc(-c2nc3cc(N4C[C@H]5COC[C@H]5C4)ccc3o2)c2cc(NC(=O)C3CC3)ncc12 [Example 306, N-(8-(methylamino)-5-(5-((3aR,6a.S)-tetrahydro-1H-furo[3,4-c]pyrrol-5(3H)-yl)benzo[d]oxazol-2-y1)-2,7-naphthyridin-3-yl)cyclopropanecarboxamide]	≤ 500	≤ 100	–	–
[2H]C([2H])([2H])Nc1ncc(-c2nc3ccc(N4CCO[C@H](C)C4)cn3n2)c2cc(NC(=O)C3CC3)ncc12 [Example 512, (R)-N-(8-((methyl-d3)amino)-5-(6-(2-methylmorpholino)-[1,2,4]triazolo[1,5-a]pyridin-2-yl)-2,7-naphthyridin-3-yl)cyclopropanecarboxamide]	≤ 500	≤ 100	–	–
CNc1ncc(C#Cc2cnn3cccnc23)c2cc(NC(=O)C3CC3)ncc12 [Example 1021, N-(8-(methylamino)-5-(pyrazolo[1,5-a]pyrimidin-3-ylethynyl)-2,7-naphthyridin-3-yl)cyclopropanecarboxamide]	–	–	≤ 100	IC50 [1, 8]: ≤ 500 nM
CNc1ncc(C#Cc2ccc(CN3CCOCC3)cn2)c2cc(NC(=O)C3CC3)ncc12 [Example 728, N-(8-(methylamino)-5-((5-(morpholinomethyl)pyridin-2-yl)ethynyl)-2,7-naphthyridin-3-yl)cyclopropanecarboxamide]	≤ 500	–	≤ 100	–
CNc1ncc(-c2nc3cc(NC(=O)CC4CC4)ccc3o2)c2cc(NC(=O)C3CC3)ncc12 [Example 1093, N-(5-(5-(2-cyclopropylacetamido)benzo[d]oxazol-2-yl)-8-(methylamino)-2,7-naphthyridin-3-yl)cyclopropanecarboxamide]	–	–	≤ 100	IC50 [1, 8]: ≤ 500 nM

Continued, in another order:

IC50 [1, 3] [nM]	Kd [2, 4] [nM]	Kd [2, 5] [nM]	SMILES	also measured
≤ 500	–	≤ 100	CNc1ncc(C#Cc2ccc3nnn(CC(C)(C)O)c3c2)c2cc(NC(=O)C3CC3)ncc12 [Example 684, N-(5-((1-(2-hydroxy-2-methylpropyl)-1H-benzo[d][1,2,3]triazol-6-yl)ethynyl)-8-(methylamino)-2,7-naphthyridin-3-yl)cyclopropanecarboxamide]	–
≤ 500	–	≤ 100	CNc1ncc(C#Cc2ccc(O[C@@H]3CCOC3)cc2)c2cc(NC(=O)C3CC3)ncc12 [Example 690, (R)—N-(8-(methylamino)-5-((4-((tetrahydrofuran-3-yl)oxy)phenyl)ethynyl)-2,7-naphthyridin-3-yl)cyclopropanecarboxamide]	–
≤ 500	≤ 100	–	CNc1ncc(-c2nc3cc(N(C)C(C)=O)ccc3o2)c2cc(NC(=O)C3CC3)ncc12 [Example 297, N-(5-(5-(N-methylacetamido)benzo[d]oxazol-2-yl)-8-(methylamino)-2,7-naphthyridin-3-y1)cyclopropanecarboxamide]	–
≤ 500	≤ 100	–	CNc1ncc(-c2nc3cc(C4CCN([C@@]5(C)COC[C@H]5O)CC4)ccc3o2)c2cc(NC(=O)C3CC3)ncc12 (single isomer, unassigned) [Example 261]	–
≤ 500	≤ 100	–	CNc1ncc(-c2nc3ccc(N4CCO[C@H](C)C4)cc3o2)c2cc(NC(=O)C3CC3)ncc12 [Example 276, (R)—N-(8-(methylamino)-5-(6-(2-methylmorpholino)benzo[d]oxazol-2-yl)-2,7-naphthyridin-3-yl)cyclopropanecarboxamide]	–
≤ 500	–	≤ 100	CNc1ncc(C#Cc2ccc(SC)cc2)c2cc(NC(=O)C3CC3)ncc12 [Example 650, N-(8-(methylamino)-5-((4-(methylthio)phenyl)ethynyl)-2,7-naphthyridin-3-yl)cyclopropanecarboxamide]	–
≤ 500	–	≤ 100	CCNc1ncc(C#Cc2ccc3nc4n(c3c2)CCOC4)c2cc(NC(=O)C3CC3)ncc12 [Example 750, N-(5-((3,4-dihydro-1H-benzo[4,5]imidazo[2,1-c][1,4]oxazin-7-yl)ethynyl)-8-(ethylamino)-2,7-naphthyridin-3-yl)cyclopropanecarboxamide]	–
≤ 500	≤ 100	–	CNc1ncc(-c2nc3ccc(OCC4CC4)cn3n2)c2cc(NC(=O)C3CC3)ncc12 [Example 495, N-(5-(6-(cyclopropylmethoxy)-[1,2,4]triazolo[1,5-a]pyridin-2-yl)-8-(methylamino)-2,7-naphthyridin-3-yl)cyclopropanecarboxamide]	–
–	–	≤ 100	CNc1ncc(-c2nc3cc(N4CCOCC4)ccc3o2)c2cc(NC(=O)[C@@H]3C[C@@H]3C(F)(F)F)ncc12 (single isomer, unassigned) [Example 1066]	IC50 [1, 8]: ≤ 500 nM
–	–	≤ 100	CNc1ncc(-c2cn3cc(C)ccc3n2)c2cc(NC(=O)C3CC3)ncc12 [Example 1056]	IC50 [1, 8]: ≤ 500 nM
